Here are results for 16 compounds from PubChem BioAssay (NCI).

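Tested at 5 concentrations; 48 h exposure; 96-well plates; endpoints linearly interpolated, else capped at highest concentration. The concentration for full growth arrest is given as TGI.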

One assay has as its system SW-620 colon. Kind of assay: NCI anticancer screen, dose series, 48 h.
On to `CC1(C)C2CCC1(C)C(N/C(Sc1ccccc1)=C(/C(Cl)=C(Cl)Cl)[N+](=O)[O-])C2` (stereo not drawn), for which the TGI is 24 µM.

`COc1cc2c(cc1O)c(O)cc1c3cc(OC)c(OC)cc3c[n+](C)c21` had a TGI of over 100 µM.

The compound `C/C(=N\NS(=O)(=O)c1ccc(C)cc1)c1ccccn1` came in with a TGI of over 100 µM.

`Cc1cc(C)c2c(=O)cc(-c3cccc4ccccc34)[nH]c2n1` yielded a TGI of over 88.8 µM.

The compound `C=C(C)C1CCC(C(=O)O)CC1` (stereo not drawn) came in with a TGI of over 100 µM.

In turn, `C=CC[C@]1(/C=N/O)CN(S(=O)(=O)CC[Si](C)(C)C)C[C@H]2CC=CC[C@H]21` had a TGI of 34.7 µM.

With `O=C1NC(=S)N/C1=C\c1cccs1`, the TGI was over 100 µM.

Take `CCN1C[C@]2(C)CC[C@H](O)C34C1C(C[C@@H]32)[C@@]1(O)CC[C@H]2C[C@@H]4[C@@H]1[C@H]2O`: the TGI is over 100 µM.

For `CCC(CC)NC1=C(NC(C)=O)C(=O)c2ccccc2C1=O`, the TGI was over 50 µM.

In the case of `O=C(NN1C(=O)C(Cl)C1c1ccc(Cl)cc1)c1c(Cl)c(Cl)c(Cl)c(Cl)c1-c1nc2ccccc2[nH]1` (stereo not drawn), the TGI is over 100 µM.

Compound `CC1(c2cccc(C3CC4(CCC3=O)OCCCCO4)c2)OCCO1` (stereo not drawn) yielded a TGI of over 100 µM.

The test system of another assay is NCI-H226 lung. Kind of assay: NCI anticancer screen, dose series, 48 h.
`CC1(C)OCN(c2ccc(N3CCOCC3)cc2)Cn2c1nc1ccccc12`: the TGI was over 100 µM.

As to `CN(C)/C=C/C(=CC=[N+](C)C)/C=C/N(C)C`, the TGI was over 100 µM.

As to `N#C[S-].[La+3].c1cnc2c(c1)ccc1cccnc12.c1cnc2c(c1)ccc1cccnc12.c1cnc2c(c1)ccc1cccnc12`, the TGI was 4.63 µM.

Take `CC1(C)C2CCC1(C)C(N/C(Sc1ccccc1)=C(/C(Cl)=C(Cl)Cl)[N+](=O)[O-])C2` (stereo not drawn): the TGI was 31.1 µM.

The compound `COc1cc2c(cc1O)c(O)cc1c3cc(OC)c(OC)cc3c[n+](C)c21` yielded a TGI of over 25.6 µM.

In turn, `C/C(=N\NS(=O)(=O)c1ccc(C)cc1)c1ccccn1` returned a TGI of over 100 µM.

As to `Cc1cc(C)c2c(=O)cc(-c3cccc4ccccc34)[nH]c2n1`, the TGI was found to be 79.1 µM.

Compound `O=S(Cc1ccccc1)c1nc2ccccc2nc1-c1cccs1` (stereo not drawn) had a TGI of 16.7 µM.

`C=C(C)C1CCC(C(=O)O)CC1` (stereo not drawn) gave a TGI of over 100 µM.

In turn, `C=CC[C@]1(/C=N/O)CN(S(=O)(=O)CC[Si](C)(C)C)C[C@H]2CC=CC[C@H]21` showed a TGI of 34.4 µM.

On to `O=C1NC(=S)N/C1=C\c1cccs1`, for which the TGI was over 100 µM.

As to `CC12C=CC(C)(C3C(=O)C4C(C(=O)C31)C1(C)C=CC4(C)S1=O)S2=O` (stereo not drawn), the TGI is over 100 µM.

`CCC(CC)NC1=C(NC(C)=O)C(=O)c2ccccc2C1=O` returned a TGI of over 50 µM.

Consider `O=C(NN1C(=O)C(Cl)C1c1ccc(Cl)cc1)c1c(Cl)c(Cl)c(Cl)c(Cl)c1-c1nc2ccccc2[nH]1` (stereo not drawn), for which the TGI is 65.7 µM.

In turn, `CC1(c2cccc(C3CC4(CCC3=O)OCCCCO4)c2)OCCO1` (stereo not drawn) registered a TGI of over 100 µM.

A further assay concerns SNB-75 CNS. Nature of the assay: NCI anticancer screen, dose series, 48 h.
As to `CC1(C)OCN(c2ccc(N3CCOCC3)cc2)Cn2c1nc1ccccc12`, the TGI was over 100 µM.

On to `N#C[S-].[La+3].c1cnc2c(c1)ccc1cccnc12.c1cnc2c(c1)ccc1cccnc12.c1cnc2c(c1)ccc1cccnc12`, for which the TGI came to 29 µM.

The compound `CC1(C)C2CCC1(C)C(N/C(Sc1ccccc1)=C(/C(Cl)=C(Cl)Cl)[N+](=O)[O-])C2` (stereo not drawn) had a TGI of 30.4 µM.

In turn, `COc1cc2c(cc1O)c(O)cc1c3cc(OC)c(OC)cc3c[n+](C)c21` came in with a TGI of over 100 µM.

Take `C/C(=N\NS(=O)(=O)c1ccc(C)cc1)c1ccccn1`: the TGI was over 100 µM.

As for `O=S(Cc1ccccc1)c1nc2ccccc2nc1-c1cccs1` (stereo not drawn), the TGI came to 36.1 µM.

`C=C(C)C1CCC(C(=O)O)CC1` (stereo not drawn): the TGI was over 100 µM.

For the compound `C=CC[C@]1(/C=N/O)CN(S(=O)(=O)CC[Si](C)(C)C)C[C@H]2CC=CC[C@H]21`, the TGI stood at 54.2 µM.

Consider `O=C1NC(=S)N/C1=C\c1cccs1`, for which the TGI was over 100 µM.

Turning to `CCN1C[C@]2(C)CC[C@H](O)C34C1C(C[C@@H]32)[C@@]1(O)CC[C@H]2C[C@@H]4[C@@H]1[C@H]2O`, the TGI is over 100 µM.

`CC12C=CC(C)(C3C(=O)C4C(C(=O)C31)C1(C)C=CC4(C)S1=O)S2=O` (stereo not drawn) gave a TGI of over 100 µM.

In turn, `CCC(CC)NC1=C(NC(C)=O)C(=O)c2ccccc2C1=O` returned a TGI of over 50 µM.

Compound `O=C(NN1C(=O)C(Cl)C1c1ccc(Cl)cc1)c1c(Cl)c(Cl)c(Cl)c(Cl)c1-c1nc2ccccc2[nH]1` (stereo not drawn) had a TGI of 57 µM.

Consider `CC1(c2cccc(C3CC4(CCC3=O)OCCCCO4)c2)OCCO1` (stereo not drawn), for which the TGI is over 100 µM.

The subject of the next assay is SN12C renal. Nature of the assay: NCI anticancer screen, dose series, 48 h.
Regarding `CC1(C)OCN(c2ccc(N3CCOCC3)cc2)Cn2c1nc1ccccc12`, the TGI was over 100 µM.

Turning to `CN(C)/C=C/C(=CC=[N+](C)C)/C=C/N(C)C`, the TGI was over 100 µM.

`N#C[S-].[La+3].c1cnc2c(c1)ccc1cccnc12.c1cnc2c(c1)ccc1cccnc12.c1cnc2c(c1)ccc1cccnc12`: the TGI worked out at 16 µM.

`CC1(C)C2CCC1(C)C(N/C(Sc1ccccc1)=C(/C(Cl)=C(Cl)Cl)[N+](=O)[O-])C2` (stereo not drawn) gave a TGI of 31 µM.

Compound `Cc1cc(C)c2c(=O)cc(-c3cccc4ccccc34)[nH]c2n1` gave a TGI of over 100 µM.

`O=S(Cc1ccccc1)c1nc2ccccc2nc1-c1cccs1` (stereo not drawn) returned a TGI of 28.1 µM.

Turning to `C=C(C)C1CCC(C(=O)O)CC1` (stereo not drawn), the TGI is over 100 µM.

In turn, `C=CC[C@]1(/C=N/O)CN(S(=O)(=O)CC[Si](C)(C)C)C[C@H]2CC=CC[C@H]21` returned a TGI of 30 µM.

`O=C1NC(=S)N/C1=C\c1cccs1` registered a TGI of over 100 µM.

Consider `CCN1C[C@]2(C)CC[C@H](O)C34C1C(C[C@@H]32)[C@@]1(O)CC[C@H]2C[C@@H]4[C@@H]1[C@H]2O`, for which the TGI was over 100 µM.

For the compound `CCC(CC)NC1=C(NC(C)=O)C(=O)c2ccccc2C1=O`, the TGI is over 50 µM.

For the compound `O=C(NN1C(=O)C(Cl)C1c1ccc(Cl)cc1)c1c(Cl)c(Cl)c(Cl)c(Cl)c1-c1nc2ccccc2[nH]1` (stereo not drawn), the TGI came out at 83.2 µM.

In turn, `CC1(c2cccc(C3CC4(CCC3=O)OCCCCO4)c2)OCCO1` (stereo not drawn) registered a TGI of over 100 µM.
